Data as given in patent US20240124483A1, “Methods for the Treatment of Fibrotic Disease” (SHY Therapeutics, LLC, priority 2021, published 2024).
Like-named read-outs stand apart in the source and are kept apart here.

Legend:
JNK = JNK Activation Assay in Panc-1 (western blot); type: cell-based, Human; design: key: Y = yes; N = No; settings: at 10 μM
Outline: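 Cells were serum-starved overnight in 0.5% FBS, then given compound (10 μM single dose or serial dilutions, 0.3% DMSO) for 3 h at 37 °C. TGF-b1 at 10 ng/ml followed, 1 h for Panc-1 and 20 min for C2C12. Phospho-JNK (Thr183/Tyr185) was read by western blot of lysates.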

Rho-A = Rho-A (Homo sapiens (Human), UniProt P61586); assay: Ras GTP Binding Domain Inhibition Assay, Rho-A; settings: without SOS, read-out: Rho-A: % inh.
Outline: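 Fluorescent GTP binding to plate-captured His-tagged Ras: compound 20 μM (or dilution series for IC50), 3 h RT, ±Sos GEF 10-30 μg/mL last hour; then 100 nM Cy3/Cy5-GTP 45 min RT, wash ×3, read bound label.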

KRas G12C mutant = KRas G12C mutant (Homo sapiens (Human), UniProt P01116, G12C); assay: Ras GTP Binding Domain Inhibition Assay, KRas G12C mutant
Outline: (§1)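 His-tagged KRas proteins coated on nickel plates overnight at 4° C in Tris buffer (pH 7.4 or 7.0, MgCl2, DTT); compounds at 20 μM final (or serial dilutions for IC50) for 3 h at room temperature, ±Sos (residues 556-1049) in final hour. Bound Cy3- or Cy5-GTP (100 nM, 45 min) read by fluorescence after washing.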

KRas wild type = KRas wild type (Homo sapiens (Human), UniProt P01116); assay: Ras GTP Binding Domain Inhibition Assay, KRas wild type
Outline: as §1

KRas G12D mutant = KRas G12D mutant (Homo sapiens (Human), UniProt P01116, G12D); assay: Ras GTP Binding Domain Inhibition Assay, KRas G12D mutant; settings: for inhibition at 20 µM: Table 7; for KRas G12D mutant + SOS: % inh. / KRas G12D mutant: % inh.: 20 uM, Table 8
Outline: as §1

[1] = + SOS, read-out: KRas G12C mutant + SOS: % inh.
[2] = without SOS, read-out: KRas G12C mutant: % inh.
[3] = + SOS, read-out: KRas wild type + SOS: % inh.
[4] = without SOS, read-out: KRas wild type: % inh.
[5] = + SOS, read-out: KRas G12D mutant + SOS: % inh.
[6] = without SOS, read-out: KRas G12D mutant: % inh.

KRas G12C mutant, sequence (P01116 other isoform, or with tags, fused parts or gaps G12C): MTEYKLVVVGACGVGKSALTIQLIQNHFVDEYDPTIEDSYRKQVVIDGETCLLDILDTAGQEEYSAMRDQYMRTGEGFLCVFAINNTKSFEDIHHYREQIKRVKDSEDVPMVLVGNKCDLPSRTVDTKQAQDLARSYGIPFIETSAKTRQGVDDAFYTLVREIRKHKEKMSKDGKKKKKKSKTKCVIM
KRas G12D mutant, sequence (P01116 other isoform, or with tags, fused parts or gaps G12D): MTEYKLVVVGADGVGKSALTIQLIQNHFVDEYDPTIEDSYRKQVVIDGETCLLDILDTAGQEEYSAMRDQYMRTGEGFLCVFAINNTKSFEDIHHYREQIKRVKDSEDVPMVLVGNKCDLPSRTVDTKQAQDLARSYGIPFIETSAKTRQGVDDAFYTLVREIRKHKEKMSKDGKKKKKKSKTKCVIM
Rho-A, sequence (P61586 whole entry, species assumed, the tested form may be a part): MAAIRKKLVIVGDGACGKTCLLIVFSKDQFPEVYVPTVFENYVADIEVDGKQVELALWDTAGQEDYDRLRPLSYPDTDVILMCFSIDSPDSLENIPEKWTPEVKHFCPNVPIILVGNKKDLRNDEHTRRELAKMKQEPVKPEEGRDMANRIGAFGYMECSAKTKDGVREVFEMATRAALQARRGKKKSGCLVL
KRas wild type, sequence (P01116 other isoform, or with tags, fused parts or gaps): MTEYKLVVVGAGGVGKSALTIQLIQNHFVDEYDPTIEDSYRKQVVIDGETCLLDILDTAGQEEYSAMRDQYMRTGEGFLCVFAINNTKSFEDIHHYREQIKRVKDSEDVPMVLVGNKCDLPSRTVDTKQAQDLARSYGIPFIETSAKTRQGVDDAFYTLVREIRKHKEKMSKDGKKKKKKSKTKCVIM

Structure (SMILES)	inhibition at 20 µM (Rho-A) [%]	inhibition at 20 µM (KRas G12C mutant; [1]) [%]	inhibition at 20 µM (KRas G12C mutant; [2]) [%]	inhibition at 20 µM (KRas wild type; [3]) [%]	inhibition at 20 µM (KRas wild type; [4]) [%]	inhibition at 20 µM (KRas G12D mutant; [5]) [%]	KRas G12D mutant + SOS: % inh. (KRas G12D mutant; + SOS)	inhibition at 20 µM (KRas G12D mutant; [6]) [%]	KRas G12D mutant: % inh. (KRas G12D mutant; without SOS)	Activation of JNK in PANC-1 (JNK)
COCCOc1nc(-c2nccn2C)nc2sc(-c3ccn(C(C)C)n3)c(C)c12 [Compound 30, 6-(1-Isopropyl-1H-pyrazol-3-yl)-4-(2-methoxyethoxy)-5-methyl-2-(1-methyl-1H-imidazol-2-yl)thieno[2,3-d]pyrimidine]	0	0	1 to 25	0	1 to 25	0	0 (0 = 0% inhibition)	0	0 (0 = 0% inhibition)	N
COCCCn1c(-c2nccn2C)nc2sc(-c3ccn(C(C)C)n3)c(C)c2c1=O [Compound 31, 6-(1-Isopropyl-1H-pyrazol-3-yl)-3-(3-methoxypropyl)-5-methyl-2-(1-methyl-1H-imidazol-2-yl)thieno[2,3-d]pyrimidin-4(3H)-one]	0	0	0	1 to 25	1 to 25	0	0 (0 = 0% inhibition)	0	0 (0 = 0% inhibition)	N
COCCCCn1c(-c2nccn2C)nc2sc(-c3ccn(C(C)C)n3)c(C)c2c1=O [Compound 33, 6-(1-Isopropyl-1H-pyrazol-3-yl)-3-(4-methoxybutyl)-5-methyl-2-(1-methyl-1H-imidazol-2-yl)thieno[2,3-d]pyrimidin-4(3H)-one]	0	1 to 25	0	1 to 25	0	0	0 (0 = 0% inhibition)	0	0 (0 = 0% inhibition)	N
COCCCCOc1nc(-c2nccn2C)nc2sc(-c3ccn(C(C)C)n3)c(C)c12 [Compound 34, 6-(1-Isopropyl-1H-pyrazol-3-yl)-4-(4-methoxybutoxy)-5-methyl-2-(1-methyl-1H-imidazol-2-yl)thieno[2,3-d]pyrimidine]	0	1 to 25	0	0	1 to 25	0	0 (0 = 0% inhibition)	1 to 25	A (A = 1-25% inhibition)	Y
COc1cc(Cn2c(-c3nccn3C)nc3sc(-c4ccn(C(C)C)n4)c(C)c3c2=O)ncn1 [Compound 35, 6-(1-Isopropyl-1H-pyrazol-3-yl)-3-((6-methoxypyrimidin-4-yl)methyl)-5-methyl-2-(1-methyl-1H-imidazol-2-yl)thieno[2,3-d]pyrimidin-4(3H)-one]	0	1 to 25	0	1 to 25	1 to 25	0	0 (0 = 0% inhibition)	1 to 25	A (A = 1-25% inhibition)	N

Continued, in another order:

inhibition at 20 µM (Rho-A) [%]	inhibition at 20 µM (KRas G12C mutant; [1]) [%]	inhibition at 20 µM (KRas G12C mutant; [2]) [%]	inhibition at 20 µM (KRas wild type; [3]) [%]	inhibition at 20 µM (KRas wild type; [4]) [%]	inhibition at 20 µM (KRas G12D mutant; [5]) [%]	KRas G12D mutant + SOS: % inh. (KRas G12D mutant; + SOS)	inhibition at 20 µM (KRas G12D mutant; [6]) [%]	KRas G12D mutant: % inh. (KRas G12D mutant; without SOS)	Structure (SMILES)	Activation of JNK in PANC-1 (JNK)
76 to 100	46 to 75	46 to 75	76 to 100	76 to 100	46 to 75	C (C = 46-75% inhibition)	46 to 75	C (C = 46-75% inhibition)	COCCCOc1nc(-c2nccn2C)nc2sc(-c3ccn(C(C)C)n3)c(C)c12 [Compound 32, 6-(1-Isopropyl-1H-pyrazol-3-yl)-4-(3-methoxypropoxy)-5-methyl-2-(1-methyl-1H-imidazol-2-yl)thieno[2,3-d]pyrimidine]	Y
0	1 to 25	0	1 to 25	1 to 25	0	0 (0 = 0% inhibition)	0	0 (0 = 0% inhibition)	COCCCn1c(-c2nccn2C)nc2sc(-c3ccn(C(C)C)n3)c(-c3ccccc3)c2c1=O [Compound 36, 6-(1-Isopropyl-1H-pyrazol-3-yl)-3-(3-methoxypropyl)-2-(1-methyl-1H-imidazol-2-yl)-5-phenylthieno[2,3-d]pyrimidin-4(3H)-one]	Y
0	0	0	1 to 25	0	0	0 (0 = 0% inhibition)	0	0 (0 = 0% inhibition)	COCCCOc1nc(-c2nccn2C)nc2sc(-c3ccn(C(C)C)n3)c(-c3ccccc3)c12 [Compound 37, 6-(1-Isopropyl-1H-pyrazol-3-yl)-4-(3-methoxypropoxy)-2-(1-methyl-1H-imidazol-2-yl)-5-phenylthieno[2,3-d]pyrimidine]	N
26 to 45	76 to 100	46 to 75	76 to 100	46 to 75	76 to 100	D (D = 76-100% inhibition)	46 to 75	C (C = 46-75% inhibition)	COc1cccc(-c2sc3nc(-c4nccn4C)nc(N[C@H]4C[C@H](OC)C4)c3c2-c2ccccc2)c1F [Compound 40, 6-(2-Fluoro-3-methoxyphenyl)-N-((1r,3r)-3-methoxycyclobutyl)-2-(1-methyl-1H-imidazol-2-yl)-5-phenylthieno[2,3-d]pyrimidin-4-amine]	Y
46 to 75	76 to 100	46 to 75	76 to 100	76 to 100	76 to 100	D (D = 76-100% inhibition)	26 to 45	B (B = 26-45% inhibition)	COc1cccc(-c2sc3nc(-c4nccn4C)nc(N[C@H]4C[C@H](OC)C4)c3c2C)c1F [Compound 42, 6-(2-Fluoro-3-methoxyphenyl)-N-((1r,3r)-3-methoxycyclobutyl)-5-methyl-2-(1-methyl-1H-imidazol-2-yl)thieno[2,3-d]pyrimidin-4-amine]	Y
46 to 75	76 to 100	26 to 45	76 to 100	46 to 75	46 to 75	C (C = 46-75% inhibition)	46 to 75	C (C = 46-75% inhibition)	COc1nccc(-c2sc3nc(-c4nccn4C)nc(N[C@H]4C[C@H](OC)C4)c3c2-c2ccccc2)c1F [Compound 45, 6-(3-Fluoro-2-methoxypyridin-4-yl)-N-((1r,3r)-3-methoxycyclobutyl)-2-(1-methyl-1H-imidazol-2-yl)-5-phenylthieno[2,3-d]pyrimidin-4-amine]	Y
46 to 75	76 to 100	26 to 45	76 to 100	46 to 75	46 to 75	C (C = 46-75% inhibition)	46 to 75	C (C = 46-75% inhibition)	COc1cc(-c2sc3nc(-c4nccn4C)nc(N[C@H]4C[C@H](OC)C4)c3c2-c2ccccc2)ccn1 [Compound 46, N-((1r,3r)-3-Methoxycyclobutyl)-6-(2-methoxypyridin-4-yl)-2-(1-methyl-1H-imidazol-2-yl)-5-phenylthieno[2,3-d]pyrimidin-4-amine]	Y
